Measured values as given in patent publication US4621077A, “Pharmacologically active biphosphonates, process for the preparation thereof and pharmaceutical compositions therefrom” (Istituto Gentili S.p.A., priority 1982, dated 1986).
“Also recorded” adds a separate entry of the source. Read-outs that look alike come from different tables or passages of the source.

What was measured:
injection sites / skin = assay: Necrosis at the injection sites in rats (local skin toxicity)
Text: The symbol "x" represents a conventional score, that is "x" meand slight necrosis, "xx" means severe necrosis, "xxx" means very severe necrosis.

[1] = test system: bone reabsorption and mineralization (tibia, trabecular metaphysis); assay type: in vivo, Wistar rats; details: for effect on bone reabsorption, in words: rat, in vivo
Experimental: Groups of five Wistar rats of weight 180-200 grams are treated for a period of seven days with 0.1, 1.0 and 10 mg of P/kg of the following biphosphonic acids:
The animals kept as a control were administered the solvent with NaCl. All the treatments were carried out by the subcutaneous route. […] The animals were fed with Altromine 1314 containing 1.1 g/100 g P and 250 IU/100 g of vitamin D3. On the eighth day, the animals were killed and the tibia was removed and fixed in 50% ethanol. The tibiae were then dehydrated in increasing concentration of ethanol and allowed to soak in methylmethacrylate after the addition of Plastoid N. Frontal sections were removed and cut to a thickness of 70-80 μm and then the sections were submitted to microradiography. This procedure permitted to evaluate the density of the mineral in the trabecular metaphysis according to the method of Shenk et al., Calc. Tiss. Res. 11, 196-214, 1973).
One animal per group has been evaluated.

skull cells = assay: cells; assay type: cell-based, Wistar rats
Experimental: (§1) Cellular culture: the cells are cultured according to the method described by Fast et al, (Biochem. J. 172, 97-107 (1978)). By way of summary, the skulls removed from Wistar rats, one day old, are digested with collagenase. The cells set free are placed on a plate with concentration of 200,000 cells per cc of medium in disks "clusters" suitable for culture, the plates having 24 wells of 1.6 cm in diameter containing 0.5 cc of medium. The cells are cultivated in the essential minimum medium containing 10% of foetal calf serum in an atmosphere of 5% CO2 at 37° up to the eighth day. The bisphosphonates are added on the first day up to the end of the experiment. The medium is changed on the first, fourth and seventh day.
The cells are counted with a Coulter counter after they have been set free from the disks by digestion with a mixture of collagenase and trypsin.

in vivo = details: mouse, Swiss mice, read-out: DL50 (the source's name)
Experimental: For this study Swiss mice, both male and female, have been utilized: during the experiment, the animals are fed according to the method with Altromin in the form of tablets. For the oral and intraperitoneal administration, there are used 5% gum arabic solutions while saline solutions of pH 4 are used for the intravenous injections.
The preliminary values of DL50 are calculated according to a graphic method.

[2] = 37° C., two days, control 29, prior to incubation 114.7
Experimental: A model system is used to evaluate the ability of the phosphonates to inhibit the formation of crystals in inorganic solutions. Three solutions are prepared according to Fleisch.
The pH is brought to 7.4 by means of potassium hydroxide. The concentration of Ca^++ was 6.7 mg%, a level similar to the calcium in blood which has been subjected to untrafiltration and the concentration of the inorganic phosphate Pi give a product Ca^++ ×Pi=80. The solution was analyzed for Ca^++ and Pi and was distributed in Erlenmeyer flasks 12 cc each. The flasks were divided in groups as follows:
and then they are incubated under stirring at 37° C. for two days.
At the end of incubation, the solutions are passed through "millipore filters" for the purpose of retaining the ctystals which are formed during the incubation; the filtrate then is analyzed for Ca^++ and Pi. The results are also reported in Table 2 as the product of Ca^++ x Pi in the solution at the end of the experiment.

[3] = test system: bone reabsorption (metaphyseal bone density); assay: Metaphyseal bone density / inhibition of bone reabsorption in rats treated for 7 days; assay type: in vivo; details: 7 days, rats
[4] = test system: skull cells (lactate production); assay: cells; assay type: cell-based, Wistar rats
Experimental: as §1
On the seventh day, the medium is changed and the cells are incubated for 16 hours. The lactate produced during this period is measured in an extract in HClO4 of the medium using lactatodehydrogenase.

[5] = Rattus norvegicus, read-out: Effect on the cellular number ± S.E.M.
[6] = 0.01 mg P/kg s.c., s.c. NaCl controls 29.72
[7] = 0.1 mg P/kg s.c., s.c. NaCl controls 29.72
[8] = 1.0 mg P/kg s.c., s.c. NaCl controls 29.72
[9] = 2.0 mg P/kg p.o., p.o. NaCl controls 28.45
[10] = Rattus norvegicus, 16 h, read-out: Effect on the production of lactate ± S.E.M.

In the case of `NCCCCCC(O)(P(=O)(O)O)P(=O)(O)O` [AHEX BP, 6-amino-1-hydroxyhexane-1,1-biphosphonic acid], the “necrosis at the injection sites” value (injection sites / skin; 0.01 mg P/kg, 1 day) is reported as “.0”, the “necrosis at the injection sites” value (injection sites / skin; 0.01 mg P/kg, 2 day) is reported as “.0” and the “necrosis at the injection sites” value (injection sites / skin; 0.01 mg P/kg, 3 day) is reported as “.0”. The “necrosis at the injection sites” value (injection sites / skin; 0.01 mg P/kg, 4 day) was “.0”, the “necrosis at the injection sites” value (injection sites / skin; 0.01 mg P/kg, 5 day) was “.0” and the “necrosis at the injection sites” value (injection sites / skin; 0.01 mg P/kg, 6 day) was “.0”. The “necrosis at the injection sites” value (injection sites / skin; 0.01 mg P/kg, 7 day) was “.0”, the “necrosis at the injection sites” value (injection sites / skin; 0.1 mg P/kg, 1 day) was “.0” and the “necrosis at the injection sites” value (injection sites / skin; 0.1 mg P/kg, 2 day) was “.0”. The “necrosis at the injection sites” value (injection sites / skin; 0.1 mg P/kg, 3 day) was “.0”, the “necrosis at the injection sites” value (injection sites / skin; 0.1 mg P/kg, 4 day) was “.0” and the “necrosis at the injection sites” value (injection sites / skin; 0.1 mg P/kg, 5 day) was “.0”. The “necrosis at the injection sites” value (injection sites / skin; 0.1 mg P/kg, 6 day) was “.0”, the “necrosis at the injection sites” value (injection sites / skin; 0.1 mg P/kg, 7 day) was “.0” and the “necrosis at the injection sites” value (injection sites / skin; 1 mg P/kg, 1 day) was “.0”. The “necrosis at the injection sites” value (injection sites / skin; 1 mg P/kg, 2 day) was “.0”, the “necrosis at the injection sites” value (injection sites / skin; 1 mg P/kg, 3 day) was “.0” and the “necrosis at the injection sites” value (injection sites / skin; 1 mg P/kg, 4 day) was “.0”. The “necrosis at the injection sites” value (injection sites / skin; 1 mg P/kg, 5 day) was “.0”, the “necrosis at the injection sites” value (injection sites / skin; 1 mg P/kg, 6 day) was “.0” and the “necrosis at the injection sites” value (injection sites / skin; 1 mg P/kg, 7 day) was “.0”. The “necrosis at the injection sites” value (injection sites / skin; 10 mg P/kg, 1 day) was “.0”, the “necrosis at the injection sites” value (injection sites / skin; 10 mg P/kg, 2 day) was “.0” and the “necrosis at the injection sites” value (injection sites / skin; 10 mg P/kg, 5 day) was “xxx”. The “necrosis at the injection sites” value (injection sites / skin; 10 mg P/kg, 6 day) was “xxx”, the “necrosis at the injection sites” value (injection sites / skin; 10 mg P/kg, 7 day) was “xxx” and the death of animals (injection sites / skin; 10 mg P/kg, 8 day) was “animals died spontaneously”. For the same compound, the “effect on mineralization, in words” value ([1]; 10 mg of P/kg / high dosage where stated) was “strong inhibition of mineralization; also recorded: exhibits high inhibition”, the “effect on bone reabsorption, in words” value [1] was “active on the reabsorption with a result slightly superior to Cl2 MBP” and the activity at 2.5 µM (skull cells; [5]) was 93.3 ± 3%. It also gave an activity at 25 µM (skull cells; [5]) of 95.2 ± 2.2%, an activity at 250 µM (skull cells; Rattus norvegicus, 250 μM, read-out: Effect on the cellular number ± S.E.M.) of 87 ± 3.4% and an LD50 (in vivo; ip) of 125 mg/kg. For the same compound, the LD50 (in vivo; iv) was 75 mg/kg, the LD50 (in vivo; po, os) was greater than 2000 mg/kg and the “product Ca++ × Pi in solution after incubation” value (shortened to “product Ca++ × Pi in solution”) ([2]; 0.05 μM) was 30.0. For the same compound, the “product Ca++ × Pi in solution” value ([2]; 0.25 μM) was 37.5, the “product Ca++ × Pi in solution” value ([2]; 0.5 μM) was 59.6 and the “product Ca++ × Pi in solution” value ([2]; 2.5 μM) was 92.6. For the same compound, the “product Ca++ × Pi in solution” value ([2]; 5.0 μM) was 95.3, the metaphysical density [3, 6] was 38.12 % volume of calcified tissue and the metaphysical density [3, 7] was 46.96 % volume of calcified tissue. For the same compound, the metaphysical density [3, 8] was 54.93 % volume of calcified tissue, the metaphysical density [3, 9] was 34.69 % volume of calcified tissue and the activity at 2.5 µM [4, 10] was 109 ± 6%. For the same compound, the activity at 25 µM [4, 10] was 108 ± 4.5% and the activity at 250 µM ([4]; Rattus norvegicus, 16 h, 250 μM, read-out: Effect on the production of lactate ± S.E.M.) was 165 ± 7.7%.

With `NCCCCC(O)(P(=O)(O)O)P(=O)(O)O` [AHPE BP, 5-amino-1-hydroxypentan-1,1-biphosphonic acid] the “necrosis at the injection sites” value (injection sites / skin; 0.01 mg P/kg, 1 day) was “.0”, the “necrosis at the injection sites” value (injection sites / skin; 0.01 mg P/kg, 2 day) was “.0” and the “necrosis at the injection sites” value (injection sites / skin; 0.01 mg P/kg, 3 day) was “.0”. For the same compound, the “necrosis at the injection sites” value (injection sites / skin; 0.01 mg P/kg, 4 day) was “.0”, the “necrosis at the injection sites” value (injection sites / skin; 0.01 mg P/kg, 5 day) was “.0” and the “necrosis at the injection sites” value (injection sites / skin; 0.01 mg P/kg, 6 day) was “.0”. The “necrosis at the injection sites” value (injection sites / skin; 0.01 mg P/kg, 7 day) was “.0”, the “necrosis at the injection sites” value (injection sites / skin; 0.1 mg P/kg, 1 day) was “.0” and the “necrosis at the injection sites” value (injection sites / skin; 0.1 mg P/kg, 2 day) was “.0”. For the same compound, the “necrosis at the injection sites” value (injection sites / skin; 0.1 mg P/kg, 3 day) was “.0”, the “necrosis at the injection sites” value (injection sites / skin; 0.1 mg P/kg, 4 day) was “.0” and the “necrosis at the injection sites” value (injection sites / skin; 0.1 mg P/kg, 5 day) was “.0”. For the same compound, the “necrosis at the injection sites” value (injection sites / skin; 0.1 mg P/kg, 6 day) was “.0”, the “necrosis at the injection sites” value (injection sites / skin; 0.1 mg P/kg, 7 day) was “.0” and the “necrosis at the injection sites” value (injection sites / skin; 1 mg P/kg, 1 day) was “.0”. The “necrosis at the injection sites” value (injection sites / skin; 1 mg P/kg, 2 day) was “.0”, the “necrosis at the injection sites” value (injection sites / skin; 1 mg P/kg, 3 day) was “.0” and the “necrosis at the injection sites” value (injection sites / skin; 1 mg P/kg, 4 day) was “.0”. For the same compound, the “necrosis at the injection sites” value (injection sites / skin; 1 mg P/kg, 5 day) was “.0”, the “necrosis at the injection sites” value (injection sites / skin; 1 mg P/kg, 6 day) was “.0” and the “necrosis at the injection sites” value (injection sites / skin; 1 mg P/kg, 7 day) was “.0”. The “necrosis at the injection sites” value (injection sites / skin; 10 mg P/kg, 1 day) was “xxx”, the “necrosis at the injection sites” value (injection sites / skin; 10 mg P/kg, 2 day) was “xxx” and the “effect on bone reabsorption, in words” value [1] was “the most active in inhibiting the bone reabsorption”. The “toxicity during the bone reabsorption experiment” value ([1]; s.c., 10 mg of P/kg / higher dosage) was “Experiment interrupted due to acute toxicity; also recorded: a toxicity at the higher dosage”, the “Effect on the cellular number ± S.E.M.” value (skull cells; 250 μM) was “dead cells” and the activity at 2.5 µM (skull cells; [5]) was 103 ± 2.8%. The activity at 25 µM (skull cells; [5]) was 42.6 ± 5.1%, the LD50 (in vivo; ip) was 75 mg/kg and the LD50 (in vivo; iv) was 85 mg/kg. The LD50 (in vivo; po, os) was 1500 mg/kg, the “product Ca++ × Pi in solution” value ([2]; 0.05 μM) was 36.7 and the “product Ca++ × Pi in solution” value ([2]; 0.25 μM) was 37.1. The “product Ca++ × Pi in solution” value ([2]; 0.5 μM) was 68.6, the “product Ca++ × Pi in solution” value ([2]; 2.5 μM) was 94.0 and the “product Ca++ × Pi in solution” value ([2]; 5.0 μM) was 97.5. The metaphysical density [3, 6] was 37.85 % volume of calcified tissue, the metaphysical density [3, 7] was 50.44 % volume of calcified tissue and the metaphysical density [3, 8] was 56.47 % volume of calcified tissue. For the same compound, the metaphysical density [3, 9] was 38.70 % volume of calcified tissue, the “Effect on the production of lactate ± S.E.M.” value ([4]; 250 μM) was “dead cells” and the activity at 2.5 µM [4, 10] was 93.4 ± 3%. The activity at 25 µM [4, 10] was 354 ± 27.7%.
